Results: patent US20260096978A1, “A METHOD FOR PREVENTING, […]/OR TREATING PTGS2-INDUCED SKIN DISORDERS AND RELATED DYSFUNCTIONS” (Symrise AG, priority 2022, published 2026)

Tests used:
[1] = system: PTGS2; assay: PTGS2 gene expression (real-time RT-PCR) in ex vivo human skin biopsies exposed to solar simulated radiation; type: cell-based; conditions: for PTGS2 gene expression, fold-change versus non-irradiated vehicle: SSR 250 J/cm^2 daily, day 2; for PTGS2 gene expression, % of irradiated vehicle: irradiated vehicle = 100; for PTGS2 gene expression, Δ versus irradiated vehicle: irradiated vehicle Δ = 0; for Effect on SSR-induced PTGS2 gene expression, in words: ex vivo human skin, SSR 250 J/cm^2
Description: (§1) In order to evaluate the efficacy of L-Carnosine on protecting skin from Solar Simulated Radiation (SSR), gene expression and protein level of PTGS2 were analysed. -Ex vivo human skin biopsies were topically treated with L-Carnosine at different concentrations (0.2% and 2.2%), and daily exposed to 250 J/cm^2 of SSR. Gene expression and protein modulation were assessed respectively at day 2 and day3. The radiation dose was selected following the literature, and represent the approximative amount of solar light acquirable under natural conditions by sunbathing.
(§2) Human skin samples were obtained from plastic surgery of healthy patients (aged between 25 and 60), and not intensive sun exposed. The informed consent was obtained from patients and retained by clinic. For the studies, twelve 8 mm diameter punch biopsies were used for each treatment. The skin samples were cultured in modified Williams' E medium at air-liquid interface and, maintained in incubator at the following conditions: 37° C., 5% CO2 and 95% humidity.
(§3) For these studies L-Carnosine was dissolved in vehicle (DMSO/PBS 1:25) at the following concentration 0.2% and 2.2%. Treatments were applied topically and renewed daily as follows: skin biopsies were cleaned with sterile cotton buds and 4 μl of treatment were applied on the biopsy's epidermis. All treated and the control samples were covered with 6 mm diameter delivery membranes.
(§4) Skin irradiation was performed daily, with Suntest XLS+(Ametek Inc., USA) equipped with the provided IR filter and a DAY LIGHT filter, to obtain an emission spectrum between 300 and 800 nm. Every day the skin samples were irradiated with a SSR dose of 250 J/cm^2. Control samples were sham-irradiated under the same conditions.
Human skin biopsies were collected in cryo-vial containing a commercial RNA stabilization solution (RNAlater, Merck KGaA, Germany) and stored at −80° C. Total RNA was extracted using a commercial kit (Rneasy mini-kit, Qiagen GmbH, Germany) according to the manufacturer's instructions. The expression level of selected genes was determined using Real-time RT-PCR method with custom designed gene array (TaqMan® Array 96-Well Fast Plates, Thermo Fisher Scientific Inc., USA).
Gene expression changes were determined in three donors.

[2] = system: PTGS2; assay: PTGS2 protein level (IHC staining) in ex vivo human skin biopsies exposed to solar simulated radiation; type: cell-based; conditions: SSR 250 J/cm^2; for PTGS2 protein level, mean as % of non-irradiated vehicle / PTGS2 protein level, Δ versus non-irradiated vehicle / PTGS2 protein level, mean score: day 3; for PTGS2 protein level, mean as % of non-irradiated vehicle: irradiated vehicle 198%; for PTGS2 protein level, Δ versus non-irradiated vehicle: irradiated vehicle Δ 98%; for PTGS2 protein level, mean score: non-irradiated vehicle 1.0302, irradiated vehicle 2.0439
Description: as §1, §2, §3, §4
Skin samples were collected (day 3), fixed in formalin and paraffin embedded. Skin sections were immuno-stained with PTGS2 antibody (Thermo Fisher Scientific Inc., USA). The images of the skin sections were acquired, and the analysis was performed through Image-J application (NIH, USA).

Structure (SMILES): NCCC(=O)N[C@@H](Cc1cnc[nH]1)C(=O)O [L-Carnosine]
- PTGS2 gene expression, fold-change versus non-irradiated vehicle ([1]; Donor #1, L-Carnosine 0.2% topical, irradiated vehicle 5.3): 4.2 fold-change
- PTGS2 gene expression, % of irradiated vehicle ([1]; Donor #1, L-Carnosine 0.2%): 79%
- PTGS2 gene expression, Δ versus irradiated vehicle ([1]; Donor #1, L-Carnosine 0.2%): −21
- PTGS2 gene expression, fold-change versus non-irradiated vehicle ([1]; Donor #1, L-Carnosine 2.2% topical, irradiated vehicle 5.3): 4.0 fold-change
- PTGS2 gene expression, % of irradiated vehicle ([1]; Donor #1, L-Carnosine 2.2%): 76%
- PTGS2 gene expression, Δ versus irradiated vehicle ([1]; Donor #1, L-Carnosine 2.2%): −24
- PTGS2 gene expression, fold-change versus non-irradiated vehicle ([1]; Donor #2, L-Carnosine 0.2% topical, irradiated vehicle 13.9): 11.3 fold-change
- PTGS2 gene expression, % of irradiated vehicle ([1]; Donor #2, L-Carnosine 0.2%): 81%
- PTGS2 gene expression, Δ versus irradiated vehicle ([1]; Donor #2, L-Carnosine 0.2%): −19
- PTGS2 gene expression, fold-change versus non-irradiated vehicle ([1]; Donor #2, L-Carnosine 2.2% topical, irradiated vehicle 13.9): 7.7 fold-change
- PTGS2 gene expression, % of irradiated vehicle ([1]; Donor #2, L-Carnosine 2.2%): 55%
- PTGS2 gene expression, Δ versus irradiated vehicle ([1]; Donor #2, L-Carnosine 2.2%): −45
- PTGS2 gene expression, fold-change versus non-irradiated vehicle ([1]; Donor #3, L-Carnosine 0.2% topical, irradiated vehicle 2.0): 1.4 fold-change
- PTGS2 gene expression, % of irradiated vehicle ([1]; Donor #3, L-Carnosine 0.2%): 70%
- PTGS2 gene expression, Δ versus irradiated vehicle ([1]; Donor #3, L-Carnosine 0.2%): −30
- PTGS2 gene expression, fold-change versus non-irradiated vehicle ([1]; Donor #3, L-Carnosine 2.2% topical, irradiated vehicle 2.0): 1.4 fold-change
- PTGS2 gene expression, % of irradiated vehicle ([1]; Donor #3, L-Carnosine 2.2%): 72%
- PTGS2 gene expression, Δ versus irradiated vehicle ([1]; Donor #3, L-Carnosine 2.2%): −28
- Effect on SSR-induced PTGS2 gene expression, in words [1]: efficiently reduce the SSR-induced induction of the PTGS2 gene
- Effect on SSR-induced PTGS2 gene expression, in words ([1]; listed as L-carnosine): reduces the expression of PTGS2
- PTGS2 protein level, mean as % of non-irradiated vehicle ([2]; L-Carnosine 0.2%): 193%
- PTGS2 protein level, Δ versus non-irradiated vehicle ([2]; L-Carnosine 0.2%): 93%
- PTGS2 protein level, mean score ([2]; L-Carnosine 0.2%): 1.9913
- PTGS2 protein level, mean as % of non-irradiated vehicle ([2]; L-Carnosine 2.2%): 146%
- PTGS2 protein level, Δ versus non-irradiated vehicle ([2]; L-Carnosine 2.2%): 46%
- PTGS2 protein level, mean score ([2]; L-Carnosine 2.2%): 1.5091
- Effect on SSR-induced PTGS2 protein, in words ([2]; ex vivo human skin): efficiently reduce the SSR-induced induction of the PTGS2 gene and the PTGS2-protein
